From patent publication US20220389007A1, “INHIBITORS OF HUMAN IMMUNODEFICIENCY VIRUS REPLICATION” (VIIV HEALTHCARE UK (No. 5) LIMITED, priority 2019, published 2022)
pEC50: −log10 of the molar value. Where two headings read alike, the source gives them in different places.

Key:
Assay type in all cases: cell-based
recombinant NL4-3 virus = experiment: HIV cell culture assay (antiviral activity, luciferase readout)
Method in brief: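 MT-2 cells infected for 4-5 days with NL4-3 reference virus carrying Renilla luciferase in place of part of nef, in presence of serial compound dilutions. Luciferase read with live-cell substrate; EC50 from median effect equation fit.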

uninfected MT2 cells = experiment: Compound cytotoxicity, XTT-based colorimetric assay; conditions: day 4, XTT assay
Method in brief: (§1)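 Run under the antiviral-assay protocol but without virus. Viability was read on day 4 and CC50 values were derived from the readout.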

[1] = as above; conditions: human; uninfected MT2 cells, day 4, XTT assay
Method in brief: as §1

[2] = Human immunodeficiency virus 1, NL43, MT2, MT-2 cells infected for 4-5 days with recombinant NL4-3 virus carrying Renilla luciferase

## Cn1nc(NS(C)(=O)=O)c2c(Cl)ccc(-n3c([C@H](Cc4cc(F)cc(F)c4)NC(=O)Cn4nc(C(F)F)c5c4C(F)(F)[C@@H]4C[C@H]54)nc4nc(-c5cnc(C(C)(C)O)s5)ccc4c3=O)c21 [Example 92, N-((S)-1-((3P)-3-(4-chloro-1-methyl-3-(methylsulfonamido)-1H-indazol-7-yl)-7-(2-(2-hydroxypropan-2-yl)thiazol-5-yl)-4-oxo-3,4-dihydropyrido[2,3-d]pyrimidin-2-yl)-2-(3,5-difluorophenyl)ethyl)-2-((3bS,4aR)-3-(difluoromethyl)-5,5-difluoro-3b,4,4a,5-tetrahydro-1H-cyclopropa[3,4]cyclopenta[1,2-c]pyrazol-1-yl)acetamide]
Recombinant NL4-3 virus; MT-2 cells infected for 4-5 days with recombinant NL4-3 virus carrying Renilla luciferase, read-out: EC50
  pEC50: 10.19
Uninfected MT2 cells
  CC50: > 100 nM

## Cn1nc(NS(C)(=O)=O)c2c(Cl)ccc(-n3c([C@H](Cc4cc(F)cc(F)c4)NC(=O)Cn4nc(C(F)F)c5c4C(F)(F)[C@@H]4C[C@H]54)nc4nc(-c5cc(C(F)(F)F)ncn5)ccc4c3=O)c21 (atropisomer, axis not shown; (P)) [Example 15, N-((S)-1-((3P)-3-(4-chloro-1-methyl-3-(methylsulfonamido)-1H-indazol-7-yl)-4-oxo-7-(6-(trifluoromethyl)pyrimidin-4-yl)-3,4-dihydropyrido[2,3-d]pyrimidin-2-yl)-2-(3,5-difluorophenyl)ethyl)-2-((3bS,4aR)-3-(difluoromethyl)-5,5-difluoro-3b,4,4a,5-tetrahydro-1H-cyclopropa[3,4]cyclopenta[1,2-c]pyrazol-1-yl)acetamide]
Recombinant NL4-3 virus; [2]
  pEC50: 10.60
[1]
  CC50 at 4 day: > 100 nM

## Cn1nc(NS(C)(=O)=O)c2c(Cl)ccc(-n3c([C@H](Cc4cc(F)cc(F)c4)NC(=O)Cn4nc(C(F)F)c5c4C(F)(F)[C@@H]4C[C@H]54)nc4nc(-c5cnn(C6CC6)c5)ccc4c3=O)c21 (atropisomer, axis not shown; (P)) [Example 74, N-((S)-1-((3P)-3-(4-chloro-1-methyl-3-(methylsulfonamido)-1H-indazol-7-yl)-7-(1-cyclopropyl-1H-pyrazol-4-yl)-4-oxo-3,4-dihydropyrido[2,3-d]pyrimidin-2-yl)-2-(3,5-difluorophenyl)ethyl)-2-((3bS,4aR)-3-(difluoromethyl)-5,5-difluoro-3b,4,4a,5-tetrahydro-1H-cyclopropa[3,4]cyclopenta[1,2-c]pyrazol-1-yl)acetamide]
Recombinant NL4-3 virus; [2]
  pEC50: 10.27
[1]
  CC50 at 4 day: > 100 nM

## Cn1nc(NS(C)(=O)=O)c2c(Cl)ccc(-n3c([C@H](Cc4cc(F)cc(F)c4)NC(=O)Cn4nc(C(F)F)c5c4C(F)(F)[C@@H]4C[C@H]54)nc4nc(-c5cncnc5)ccc4c3=O)c21 (atropisomer, axis not shown; (P)) [Example 55, N-((S)-1-((3P)-3-(4-chloro-1-methyl-3-(methylsulfonamido)-1H-indazol-7-yl)-4-oxo-7-(pyrimidin-5-yl)-3,4-dihydropyrido[2,3-d]pyrimidin-2-yl)-2-(3,5-difluorophenyl)ethyl)-2-((3bS,4aR)-3-(difluoromethyl)-5,5-difluoro-3b,4,4a,5-tetrahydro-1H-cyclopropa[3,4]cyclopenta[1,2-c]pyrazol-1-yl)acetamide]
Recombinant NL4-3 virus; [2]
  pEC50: 10.05
[1]
  CC50 at 4 day: > 100 nM

## Cn1nc(NS(C)(=O)=O)c2c(Cl)ccc(-n3c([C@H](Cc4cc(F)cc(F)c4)NC(=O)Cn4nc(C(F)F)c5c4C(F)(F)[C@@H]4C[C@H]54)nc4nc(-c5ccc(F)cc5C(F)(F)F)ccc4c3=O)c21 (atropisomer, axis not shown; (P)) [Example 22, N-((S)-1-((3P)-3-(4-chloro-1-methyl-3-(methylsulfonamido)-1H-indazol-7-yl)-7-(4-fluoro-2-(trifluoromethyl)phenyl)-4-oxo-3,4-dihydropyrido[2,3-d]pyrimidin-2-yl)-2-(3,5-difluorophenyl)ethyl)-2-((3bS,4aR)-3-(difluoromethyl)-5,5-difluoro-3b,4,4a,5-tetrahydro-1H-cyclopropa[3,4]cyclopenta[1,2-c]pyrazol-1-yl)acetamide]
Recombinant NL4-3 virus; [2]
  pEC50: 10.28
[1]
  CC50 at 4 day: > 100 nM

## Cc1cc(-c2ccc3c(=O)n(-c4ccc(Cl)c5c(NS(C)(=O)=O)nn(C)c45)c([C@H](Cc4cc(F)cc(F)c4)NC(=O)Cn4nc(C(F)F)c5c4C(F)(F)[C@@H]4C[C@H]54)nc3n2)n[nH]1 (atropisomer, axis not shown; (P)) [Example 98, N-((S)-1-((3P)-3-(4-chloro-1-methyl-3-(methylsulfonamido)-1H-indazol-7-yl)-7-(5-methyl-1H-pyrazol-3-yl)-4-oxo-3,4-dihydropyrido[2,3-d]pyrimidin-2-yl)-2-(3,5-difluorophenyl)ethyl)-2-((3bS,4aR)-3-(difluoromethyl)-5,5-difluoro-3b,4,4a,5-tetrahydro-1H-cyclopropa[3,4]cyclopenta[1,2-c]pyrazol-1-yl)acetamide]
Recombinant NL4-3 virus; [2]
  pEC50: 9.70
[1]
  CC50 at 4 day: > 100 nM

## Cn1nc(NS(C)(=O)=O)c2c(Cl)ccc(-n3c([C@H](Cc4cc(F)cc(F)c4)NC(=O)Cn4nc(C(F)F)c5c4C(F)(F)[C@@H]4C[C@H]54)nc4nc(-c5cccc(C(F)F)n5)ccc4c3=O)c21 (atropisomer, axis not shown; (P)) [Example 38, N-((S)-1-((3P)-3-(4-chloro-1-methyl-3-(methylsulfonamido)-1H-indazol-7-yl)-7-(6-(difluoromethyl)pyridin-2-yl)-4-oxo-3,4-dihydropyrido[2,3-d]pyrimidin-2-yl)-2-(3,5-difluorophenyl)ethyl)-2-((3bS,4aR)-3-(difluoromethyl)-5,5-difluoro-3b,4,4a,5-tetrahydro-1H-cyclopropa[3,4]cyclopenta[1,2-c]pyrazol-1-yl)acetamide]
Recombinant NL4-3 virus; [2]
  pEC50: 10.29
[1]
  CC50 at 4 day: > 100 nM

## Cn1nc(NS(C)(=O)=O)c2c(Cl)ccc(-n3c([C@H](Cc4cc(F)cc(F)c4)NC(=O)Cn4nc(C(F)F)c5c4C(F)(F)[C@@H]4C[C@H]54)nc4nc(-c5ccn(CC(F)(F)C(F)F)n5)ccc4c3=O)c21 (atropisomer, axis not shown; (P)) [Example 84, N-((S)-1-((3P)-3-(4-chloro-1-methyl-3-(methylsulfonamido)-1H-indazol-7-yl)-4-oxo-7-(1-(2,2,3,3-tetrafluoropropyl)-1H-pyrazol-3-yl)-3,4-dihydropyrido[2,3-d]pyrimidin-2-yl)-2-(3,5-difluorophenyl)ethyl)-2-((3bS,4aR)-3-(difluoromethyl)-5,5-difluoro-3b,4,4a,5-tetrahydro-1H-cyclopropa[3,4]cyclopenta[1,2-c]pyrazol-1-yl)acetamide]
Recombinant NL4-3 virus; [2]
  pEC50: 10.39
[1]
  CC50 at 4 day: > 100 nM

## CCC(F)(F)Cn1ccc(-c2ccc3c(=O)n(-c4ccc(Cl)c5c(NS(C)(=O)=O)nn(C)c45)c([C@H](Cc4cc(F)cc(F)c4)NC(=O)Cn4nc(C(F)F)c5c4C(F)(F)[C@@H]4C[C@H]54)nc3n2)n1 (atropisomer, axis not shown; (P)) [Example 86, N-((S)-1-((3P)-3-(4-chloro-1-methyl-3-(methylsulfonamido)-1H-indazol-7-yl)-7-(1-(2,2-difluorobutyl)-1H-pyrazol-3-yl)-4-oxo-3,4-dihydropyrido[2,3-d]pyrimidin-2-yl)-2-(3,5-difluorophenyl)ethyl)-2-((3bS,4aR)-3-(difluoromethyl)-5,5-difluoro-3b,4,4a,5-tetrahydro-1H-cyclopropa[3,4]cyclopenta[1,2-c]pyrazol-1-yl)acetamide]
Recombinant NL4-3 virus; [2]
  pEC50: 10.08
[1]
  CC50 at 4 day: > 100 nM

## Cn1nc(NS(C)(=O)=O)c2c(Cl)ccc(-n3c([C@H](Cc4cc(F)cc(F)c4)NC(=O)Cn4nc(C(F)F)c5c4C(F)(F)[C@@H]4C[C@H]54)nc4nc(-c5ccc(S(C)(=O)=O)cc5)ccc4c3=O)c21 (atropisomer, axis not shown; (P)) [Example 35, N-((S)-1-((3P)-3-(4-chloro-1-methyl-3-(methylsulfonamido)-1H-indazol-7-yl)-7-(4-(methylsuIfonyl)phenyl)-4-oxo-3,4-dihydropyrido[2,3-d]pyrimidin-2-yl)-2-(3,5-difluorophenyl)ethyl)-2-((3bS,4aR)-3-(difluoromethyl)-5,5-difluoro-3b,4,4a,5-tetrahydro-1H-cyclopropa[3,4]cyclopenta[1,2-c]pyrazol-1-yl)acetamide]
Recombinant NL4-3 virus; [2]
  pEC50: 9.85
[1]
  CC50 at 4 day: > 100 nM

## Cn1nc(NS(C)(=O)=O)c2c(Cl)ccc(-n3c([C@H](Cc4cc(F)cc(F)c4)NC(=O)Cn4nc(C(F)F)c5c4C(F)(F)[C@@H]4C[C@H]54)nc4nc(-c5nccc(C(F)F)n5)ccc4c3=O)c21 (atropisomer, axis not shown; (P)) [Example 6, N-((S)-1-((3P)-3-(4-chloro-1-methyl-3-(methylsulfonamido)-1H-indazol-7-yl)-7-(4-(difluoromethyl)pyrimidin-2-yl)-4-oxo-3,4-dihydropyrido[2,3-d]pyrimidin-2-yl)-2-(3,5-difluorophenyl)ethyl)-2-((3bS,4aR)-3-(difluoromethyl)-5,5-difluoro-3b,4,4a,5-tetrahydro-1H-cyclopropa[3,4]cyclopenta[1,2-c]pyrazol-1-yl)acetamide]
Recombinant NL4-3 virus; [2]
  pEC50: 10.64
[1]
  CC50 at 4 day: > 100 nM

## Cn1nc(NS(C)(=O)=O)c2c(Cl)ccc(-n3c([C@H](Cc4cc(F)cc(F)c4)NC(=O)Cn4nc(C(F)F)c5c4C(F)(F)[C@@H]4C[C@H]54)nc4nc(-c5cnc(C(C)(F)F)s5)ccc4c3=O)c21 (atropisomer, axis not shown; (P)) [Example 99, N-((S)-1-((3P)-3-(4-chloro-1-methyl-3-(methylsulfonamido)-1H-indazol-7-yl)-7-(2-(1,1-difluoroethyl)thiazol-5-yl)-4-oxo-3,4-dihydropyrido[2,3-d]pyrimidin-2-yl)-2-(3,5-difluorophenyl)ethyl)-2-((3bS,4aR)-3-(difluoromethyl)-5,5-difluoro-3b,4,4a,5-tetrahydro-1H-cyclopropa[3,4]cyclopenta[1,2-c]pyrazol-1-yl)acetamide]
Recombinant NL4-3 virus; [2]
  pEC50: 10.21
[1]
  CC50 at 4 day: > 100 nM
